From PMC12175894 (Science Advances, 2025) come the findings set out here.

Broadly, the Emax is the greatest response seen or fitted, relative to the assay's reference. The term EC50 denotes the concentration at which the effect is half-maximal.

Each structure is given as a SMILES string. Where a chain is given by its changes, count along the chain named. “Also recorded” adds a separate entry of the source. Read-outs that look alike come from different tables or passages of the source.

One data set concerns the target T1, 5-HT1AR wt (Homo sapiens, UniProt P08908).
T1 construct: host or cells: HEK293T, transient; membranes
T1 sequence (P08908 1-422): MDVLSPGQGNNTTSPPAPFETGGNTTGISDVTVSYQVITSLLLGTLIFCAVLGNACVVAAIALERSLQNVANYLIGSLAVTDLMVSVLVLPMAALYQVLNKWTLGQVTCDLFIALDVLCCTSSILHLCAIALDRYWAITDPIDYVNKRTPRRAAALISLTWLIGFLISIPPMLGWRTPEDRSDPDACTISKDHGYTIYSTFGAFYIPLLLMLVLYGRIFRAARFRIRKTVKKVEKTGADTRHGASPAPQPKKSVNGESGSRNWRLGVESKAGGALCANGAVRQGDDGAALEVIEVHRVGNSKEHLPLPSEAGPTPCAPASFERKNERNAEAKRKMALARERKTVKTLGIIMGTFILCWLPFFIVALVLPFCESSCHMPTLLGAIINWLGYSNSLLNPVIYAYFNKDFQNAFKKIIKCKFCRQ
The data set is described as follows: Radioligand competition, displacement of [3H]WAY100635. In kind it is binding. (In general: Displacement assays read how much labelled ligand stays bound in the presence of the test substance.)

The next data set has as its target T2, 5-HT1AR Q97^2.65A (Homo sapiens, UniProt P08908, Q97A).
T2 sequence (P08908 1-422 Q97A): T1 sequence (P08908 1-422) with Q97A
The description is as above. In kind it is binding. Particulars: 5-HT1AR Q97A; HEK 293T membranes; read-out: Ki [nM ± SEM].

Data set [1] has as its target T3, 5-HT1AR F112^3.28W + M92^2.60F (Homo sapiens, UniProt P08908, F112W/M92F).
T3 sequence (P08908 1-422 M92F/F112W): T1 sequence (P08908 1-422) with M92F, F112W
The data set is described as follows: GloSensor cAMP accumulation in HEK293AΔGi/o. The class given is cell-based. Conditions: read-out: Emax [% ± SEM], cAMP accumulation.

Another data set deals with T4, 5-HT1AR + Gαi2 (Homo sapiens, UniProt P08908).
T4 construct: host or cells: HEK293AΔGi/o
The data set is described as follows: GloSensor cAMP in HEK293AΔGi/o co-transfected with Gαi2. The class given is cell-based.

A further data set deals with mice. Description: Conditioned place preference. The class given is in vivo, mouse. Conditions: 10 mg/kg i.p.
The target in the next data set is 5-HT1AR + Gαi1 (Homo sapiens, UniProt P08908). The data set is described as follows: cell-based.
In a further data set the target is T5, 5-HT1AR (Homo sapiens, UniProt P08908).
T5 sequence (P08908 1-422): T1 sequence (P08908 1-422)
Description: cell-based.

A further data set deals with α2CR (Homo sapiens, UniProt P18825). The data set is described as follows: BRET Gαi1 activation. For orientation: BRET reads energy transfer from a luciferase to a nearby fluorophore.
Another data set has as its target 5-HT1ER (Homo sapiens, UniProt P28566). Description: BRET Gαi1 activation.
In another data set the target is 5-HT1FR (Homo sapiens, UniProt P30939). Description: BRET Gαi1 activation.
The next data set has as its target adrenergic α2B (Homo sapiens, UniProt P18089). Description: Radioligand displacement, [3H]RX821002.
Another data set concerns the target orexin OX1 (Homo sapiens, UniProt O43613). The data set is described as follows: Radioligand displacement, [3H]SB674042.
For a further data set, the target named is neurotensin NTS1 (Homo sapiens, UniProt P30989). The data set is described as follows: Radioligand displacement, [3H]NT(8-13).
In the next data set the target is opioid δOR (Homo sapiens, UniProt P41143). Description: Radioligand displacement, [3H]diprenorphine.
In the next data set the target is opioid κOR (Homo sapiens, UniProt P41145). The data set is described as follows: Radioligand displacement, [3H]diprenorphine.
Another data set has as its target T6, 5-HT1AR wildtype (Homo sapiens, UniProt P08908).
T6 construct: host or cells: HEK293T, HEK293A, HEK293AΔGs, HEK293AΔGi/o, HEK293AΔARRB1/B2
T6 sequence (P08908 1-422): T1 sequence (P08908 1-422)
The data set is described as follows: GloSensor cAMP accumulation in HEK293AΔGi/o. The class given is cell-based. Particulars: read-out: Emax [% ± SEM], cAMP accumulation. A general note: cAMP levels reflect the balance of adenylyl cyclase and phosphodiesterase activity.

Sequence of opioid κOR (P41145 whole entry): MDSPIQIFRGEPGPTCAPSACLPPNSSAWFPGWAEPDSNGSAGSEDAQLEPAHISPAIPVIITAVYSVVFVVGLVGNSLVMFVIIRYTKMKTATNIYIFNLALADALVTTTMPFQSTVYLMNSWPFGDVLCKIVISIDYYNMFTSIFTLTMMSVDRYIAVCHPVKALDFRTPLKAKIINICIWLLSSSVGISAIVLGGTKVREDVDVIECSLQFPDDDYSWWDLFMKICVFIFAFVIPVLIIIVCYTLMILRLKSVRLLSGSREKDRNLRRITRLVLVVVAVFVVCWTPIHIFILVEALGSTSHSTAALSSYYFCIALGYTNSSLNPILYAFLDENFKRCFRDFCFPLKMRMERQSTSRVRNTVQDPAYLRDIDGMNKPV
Sequence of orexin OX1 (O43613 whole entry): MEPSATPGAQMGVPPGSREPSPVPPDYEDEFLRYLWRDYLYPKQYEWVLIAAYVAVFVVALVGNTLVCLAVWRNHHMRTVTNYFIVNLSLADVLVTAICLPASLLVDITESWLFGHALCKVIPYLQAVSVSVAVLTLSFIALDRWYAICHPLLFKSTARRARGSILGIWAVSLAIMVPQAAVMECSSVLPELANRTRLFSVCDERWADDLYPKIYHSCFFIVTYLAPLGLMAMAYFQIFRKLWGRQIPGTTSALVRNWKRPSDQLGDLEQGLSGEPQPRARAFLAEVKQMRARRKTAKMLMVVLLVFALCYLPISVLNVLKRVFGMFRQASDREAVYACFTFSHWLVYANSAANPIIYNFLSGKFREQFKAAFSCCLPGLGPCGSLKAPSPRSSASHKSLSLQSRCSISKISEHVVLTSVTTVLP
Sequence of neurotensin NTS1 (P30989 whole entry): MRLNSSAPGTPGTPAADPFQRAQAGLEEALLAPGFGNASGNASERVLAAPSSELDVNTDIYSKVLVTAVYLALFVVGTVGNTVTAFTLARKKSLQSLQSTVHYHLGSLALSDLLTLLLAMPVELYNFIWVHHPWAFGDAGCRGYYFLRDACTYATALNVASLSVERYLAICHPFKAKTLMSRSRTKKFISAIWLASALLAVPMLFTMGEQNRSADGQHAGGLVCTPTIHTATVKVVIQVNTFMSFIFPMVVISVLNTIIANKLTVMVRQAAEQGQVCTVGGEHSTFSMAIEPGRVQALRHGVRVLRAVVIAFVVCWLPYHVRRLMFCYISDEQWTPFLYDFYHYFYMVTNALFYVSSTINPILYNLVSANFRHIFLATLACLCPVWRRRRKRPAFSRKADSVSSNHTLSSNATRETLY
Sequence of adrenergic α2B (P18089 whole entry): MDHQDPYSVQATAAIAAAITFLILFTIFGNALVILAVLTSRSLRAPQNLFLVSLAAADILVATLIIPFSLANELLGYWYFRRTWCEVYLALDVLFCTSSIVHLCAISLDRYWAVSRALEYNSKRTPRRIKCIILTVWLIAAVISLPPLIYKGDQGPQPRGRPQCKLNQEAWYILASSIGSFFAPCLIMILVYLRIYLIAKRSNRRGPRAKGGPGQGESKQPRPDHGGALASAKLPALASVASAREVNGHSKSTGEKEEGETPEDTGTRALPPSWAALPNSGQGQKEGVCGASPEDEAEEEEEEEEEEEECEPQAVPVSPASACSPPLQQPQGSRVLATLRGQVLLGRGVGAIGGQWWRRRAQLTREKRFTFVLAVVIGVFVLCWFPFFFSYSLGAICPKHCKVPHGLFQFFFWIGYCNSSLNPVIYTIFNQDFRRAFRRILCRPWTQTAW
Sequence of opioid δOR (P41143 whole entry): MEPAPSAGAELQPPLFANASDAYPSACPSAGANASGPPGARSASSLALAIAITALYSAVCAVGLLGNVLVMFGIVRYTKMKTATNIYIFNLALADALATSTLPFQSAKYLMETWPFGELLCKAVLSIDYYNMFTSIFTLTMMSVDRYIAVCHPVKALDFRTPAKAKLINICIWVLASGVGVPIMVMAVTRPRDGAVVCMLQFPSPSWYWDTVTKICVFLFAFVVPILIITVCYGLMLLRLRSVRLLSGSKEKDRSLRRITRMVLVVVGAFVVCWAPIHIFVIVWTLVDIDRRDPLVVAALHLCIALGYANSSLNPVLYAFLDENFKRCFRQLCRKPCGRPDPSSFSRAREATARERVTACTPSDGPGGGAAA
T4 sequence (P04899 2-355 partner limits assumed, one chain of several): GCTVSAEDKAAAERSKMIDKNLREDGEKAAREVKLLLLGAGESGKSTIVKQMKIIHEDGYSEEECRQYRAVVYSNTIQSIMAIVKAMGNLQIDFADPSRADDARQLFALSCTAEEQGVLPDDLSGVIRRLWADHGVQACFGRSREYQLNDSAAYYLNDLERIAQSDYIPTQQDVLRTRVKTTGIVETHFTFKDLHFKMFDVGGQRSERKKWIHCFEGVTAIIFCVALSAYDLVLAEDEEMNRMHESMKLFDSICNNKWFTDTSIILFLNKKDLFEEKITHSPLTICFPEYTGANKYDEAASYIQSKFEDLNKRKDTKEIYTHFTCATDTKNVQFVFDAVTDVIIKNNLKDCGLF
Sequence of 5-HT1ER (P28566 whole entry): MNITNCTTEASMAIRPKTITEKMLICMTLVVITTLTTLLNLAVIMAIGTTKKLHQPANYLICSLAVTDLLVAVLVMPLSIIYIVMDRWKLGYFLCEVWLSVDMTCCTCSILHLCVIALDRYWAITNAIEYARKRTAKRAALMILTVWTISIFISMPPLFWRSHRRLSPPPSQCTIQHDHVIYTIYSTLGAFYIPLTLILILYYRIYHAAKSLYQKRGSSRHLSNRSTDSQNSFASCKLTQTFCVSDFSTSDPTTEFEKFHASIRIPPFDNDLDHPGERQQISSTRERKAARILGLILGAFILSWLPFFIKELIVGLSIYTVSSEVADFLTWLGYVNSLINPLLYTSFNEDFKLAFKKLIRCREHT
Sequence of 5-HT1FR (P30939 whole entry): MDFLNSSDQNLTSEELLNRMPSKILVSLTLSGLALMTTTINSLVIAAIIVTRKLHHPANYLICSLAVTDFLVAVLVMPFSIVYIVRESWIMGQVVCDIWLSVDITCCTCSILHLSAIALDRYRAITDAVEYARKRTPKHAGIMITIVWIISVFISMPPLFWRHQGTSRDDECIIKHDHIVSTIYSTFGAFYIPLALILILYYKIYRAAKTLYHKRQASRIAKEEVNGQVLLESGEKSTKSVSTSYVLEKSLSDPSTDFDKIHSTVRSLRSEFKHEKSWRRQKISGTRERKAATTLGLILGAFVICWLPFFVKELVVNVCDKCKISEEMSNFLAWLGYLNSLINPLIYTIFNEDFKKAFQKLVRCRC
Sequence of α2CR (P18825 whole entry): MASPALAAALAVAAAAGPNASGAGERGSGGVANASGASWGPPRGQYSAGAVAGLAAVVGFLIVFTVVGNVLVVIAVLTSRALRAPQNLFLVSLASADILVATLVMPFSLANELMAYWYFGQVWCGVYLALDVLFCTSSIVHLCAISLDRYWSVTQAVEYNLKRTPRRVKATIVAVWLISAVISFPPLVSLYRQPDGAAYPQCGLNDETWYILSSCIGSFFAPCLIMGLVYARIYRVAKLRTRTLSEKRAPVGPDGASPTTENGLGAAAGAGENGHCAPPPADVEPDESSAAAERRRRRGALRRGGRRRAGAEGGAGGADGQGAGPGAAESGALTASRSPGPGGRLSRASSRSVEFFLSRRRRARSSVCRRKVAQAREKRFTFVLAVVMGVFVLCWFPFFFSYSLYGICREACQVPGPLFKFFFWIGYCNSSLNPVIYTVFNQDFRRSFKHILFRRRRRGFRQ
Sequence of 5-HT1AR + Gαi1 (P63096 2-354 partner limits assumed, one chain of several): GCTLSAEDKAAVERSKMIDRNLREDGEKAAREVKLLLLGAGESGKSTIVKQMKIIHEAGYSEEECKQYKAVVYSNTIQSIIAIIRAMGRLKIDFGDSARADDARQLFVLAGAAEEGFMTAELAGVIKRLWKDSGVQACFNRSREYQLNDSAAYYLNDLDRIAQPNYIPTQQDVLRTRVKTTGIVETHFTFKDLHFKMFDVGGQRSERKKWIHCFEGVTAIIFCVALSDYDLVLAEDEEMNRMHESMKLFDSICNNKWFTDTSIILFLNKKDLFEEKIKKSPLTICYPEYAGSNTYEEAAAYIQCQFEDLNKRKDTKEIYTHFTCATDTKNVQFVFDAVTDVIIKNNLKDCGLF

Consider `COc1ccccc1OCCNCCCOc1ccc2c(c1)NC(=O)CO2` [ST171], for which the Ki on 5-HT1AR wt (5-HT1A, read-out: pKi (converted)) was 0.369 nM; at 5-HT1AR wt (5-HT1AR wt, membranes from transiently transfected HEK 293T cells, read-out: Ki [nM ± SEM]), 0.41 nM; at 5-HT1AR Q97^2.65A, 63 nM; at adrenergic α2B (Ki [nM ± SD]), 110 ± 60 nM; at adrenergic α2B (pKi) it was 103 nM; at orexin OX1 (Ki [nM ± SD]), greater than 50000 nM. The Ki was greater than 50100 nM at orexin OX1 (pKi); greater than 50000 nM at neurotensin NTS1 (Ki [nM ± SD]); greater than 50100 nM on neurotensin NTS1 (pKi); 24000 ± 3500 nM at opioid δOR (Ki [nM ± SD]); 23400 nM on opioid δOR (pKi); 6200 ± 850 nM on opioid κOR (Ki [nM ± SD]). The compound further showed a Ki on opioid κOR (pKi) of 6280 nM. Further, the Emax in data set [1] is less than 5%; on 5-HT1AR + Gαi2, 57 ± 7%; on 5-HT1ER, less than 10%; on 5-HT1FR, less than 10%. Moreover, the EC50 worked out at 4.4 ± 1 nM on 5-HT1AR + Gαi2 (HEK293AΔGi/o + Gαi2, read-out: EC50 [nM ± SEM], inhibition of cAMP accumulation); 0.0025 ± 0.0007 µM on 5-HT1AR + Gαi1; 0.0016 µM at 5-HT1AR. In the data set on mice, the “conditioned place preference (rewarding properties)” value is on record as “rewarding; also recorded: induces CPP”. For the same compound, the intrinsic activity result on α2CR is given as “devoid of intrinsic activity”.
For `Cc1ccc(CNCC2(F)CCN(C(=O)c3ccc(F)c(Cl)c3)CC2)nc1` [befiradol, reference compound], on 5-HT1AR wildtype, the Emax came out at 74 ± 3%.
